Test system: Human coronavirus 229E
Experiment: Antiviral activity against HCoV-229E harboring GFP infected in human Huh-7 cells treated 1 hr prior to viral infection by fluorometric analysis
Type: functional, organism-based

## CCN(CC)CCCC(C)Nc1ccnc2cc(Cl)ccc12 (stereo unspecified) [CHLOROQUINE]
  EC50: 3.3 µM
